Test [1] deals with Mus musculus. Kind of test: Reduction in proteinuria in BALB/c mouse model of LPS-induced reversible proteinuric kidney disease at 300 ug/100 g body weight, ip measured 2 to 6 hrs post dose by ELISA. Format: functional, organism-based. A general note: ELISA stands for enzyme-linked immunosorbent assay.
The species entered for test [2] is Ovis aries. Kind of test: Ring stabilizer activity at full-length native sheep brain dynamin 1 assessed as increase in basal dynamin GTP hydrolysis up to 40 mins.
The target of the next test is T1, Dynamin-1 (Homo sapiens) (UniProt Q05193).
T1 sequence (whole entry): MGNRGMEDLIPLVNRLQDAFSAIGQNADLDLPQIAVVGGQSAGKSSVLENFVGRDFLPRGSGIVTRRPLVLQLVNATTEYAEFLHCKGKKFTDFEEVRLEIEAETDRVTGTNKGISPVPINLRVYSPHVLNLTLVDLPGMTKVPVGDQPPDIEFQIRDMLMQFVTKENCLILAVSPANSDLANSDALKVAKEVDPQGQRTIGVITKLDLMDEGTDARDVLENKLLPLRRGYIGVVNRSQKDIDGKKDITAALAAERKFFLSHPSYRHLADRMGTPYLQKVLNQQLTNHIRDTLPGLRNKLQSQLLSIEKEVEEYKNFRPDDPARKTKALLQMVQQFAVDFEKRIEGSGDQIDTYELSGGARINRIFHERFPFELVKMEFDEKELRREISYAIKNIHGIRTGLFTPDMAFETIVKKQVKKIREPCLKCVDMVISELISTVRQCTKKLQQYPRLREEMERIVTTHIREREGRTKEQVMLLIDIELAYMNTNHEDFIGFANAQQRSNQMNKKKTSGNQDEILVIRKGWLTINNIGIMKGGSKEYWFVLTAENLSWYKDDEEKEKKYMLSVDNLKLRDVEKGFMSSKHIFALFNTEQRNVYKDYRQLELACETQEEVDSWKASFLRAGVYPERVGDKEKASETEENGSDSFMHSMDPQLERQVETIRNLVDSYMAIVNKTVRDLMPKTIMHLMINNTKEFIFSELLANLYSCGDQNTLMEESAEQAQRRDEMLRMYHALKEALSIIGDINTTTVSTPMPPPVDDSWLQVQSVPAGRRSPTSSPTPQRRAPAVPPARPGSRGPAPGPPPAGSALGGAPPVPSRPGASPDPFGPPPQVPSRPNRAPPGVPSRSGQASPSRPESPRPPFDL
Kind of test: Ring stabilizer activity at recombinant dynamin 1 dimeric GG2 form (unknown origin) assessed as stimulation of GTPase activity using 200 to 1000 nM full-length dynamin.

Test [3] can be described thus: Inhibition of helical full-length native sheep brain dynamin 1 assessed as reduction in PS liposomes-induced GTPase activity. The arrangement: species or system Ovis aries.
Test [4] concerns the target T2, Dynamin-1 (Mus musculus) (UniProt P39053).
T2 sequence (whole entry): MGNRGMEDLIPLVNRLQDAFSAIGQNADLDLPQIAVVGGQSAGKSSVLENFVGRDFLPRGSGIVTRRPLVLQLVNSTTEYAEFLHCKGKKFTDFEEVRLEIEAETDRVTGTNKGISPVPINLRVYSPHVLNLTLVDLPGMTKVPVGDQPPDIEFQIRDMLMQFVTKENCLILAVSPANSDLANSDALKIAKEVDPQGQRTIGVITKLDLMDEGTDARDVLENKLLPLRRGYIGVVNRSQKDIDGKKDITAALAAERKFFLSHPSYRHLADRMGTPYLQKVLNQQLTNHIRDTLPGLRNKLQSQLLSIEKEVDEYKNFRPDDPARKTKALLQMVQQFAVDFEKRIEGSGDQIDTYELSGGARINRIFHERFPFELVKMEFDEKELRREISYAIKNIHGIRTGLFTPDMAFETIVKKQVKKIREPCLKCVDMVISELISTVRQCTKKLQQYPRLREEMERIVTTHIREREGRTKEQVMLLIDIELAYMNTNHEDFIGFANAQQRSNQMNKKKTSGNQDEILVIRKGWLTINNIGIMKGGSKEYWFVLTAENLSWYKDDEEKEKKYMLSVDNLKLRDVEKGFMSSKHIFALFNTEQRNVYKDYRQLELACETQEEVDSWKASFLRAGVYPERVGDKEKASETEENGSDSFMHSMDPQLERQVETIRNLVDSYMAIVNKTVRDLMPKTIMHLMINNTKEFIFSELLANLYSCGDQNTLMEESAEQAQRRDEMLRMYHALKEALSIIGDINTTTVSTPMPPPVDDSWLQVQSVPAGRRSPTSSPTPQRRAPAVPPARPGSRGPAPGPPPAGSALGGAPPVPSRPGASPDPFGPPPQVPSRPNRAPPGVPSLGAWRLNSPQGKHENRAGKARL
The test can be described thus: Ring stabilizer activity at dynamin in mouse podocytes assessed as increase in well-defined stress fibers incubated for 10 mins. The format is cell-based.

For test [5], the species on record is Ovis aries. Kind of test: Induction of helical shape alteration of full-length native sheep brain dynamin 1 by electron microscopic analysis.
For test [6], the species on record is Ovis aries. The test can be described thus: Ring stabilizer activity at full-length native sheep brain dynamin 1 assessed as stimulation of GTPase activity at 5 uM in absence of PS liposomes using =>100 nM full-length dynamin 1.
The species entered for test [7] is Ovis aries. The test can be described thus: Ring stabilizer activity at full-length native sheep brain dynamin 1 assessed as stimulation of GTPase activity using 800 nM full-length dynamin in presence of 30 mM NaCl in absence of PS liposomes and measured after 4 mins. To be noted: TDE = time-dependent effect.
The species entered for test [8] is Ovis aries. Kind of test: Inhibition of full-length native sheep brain dynamin 1 assessed as reduction in PS liposomes-induced GTPase activity at 5 uM using 400 nM full-length dynamin 1.
The species entered for test [9] is Ovis aries. The test can be described thus: Induction of self assembly of full-length native sheep brain dynamin 1 assessed as formation of dynamin rings at 5.4 uM using 200 nM full-length dynamin in absence of PS liposomes by electron microscopic analysis.
Test [10] has as its system Mus musculus. Kind of test: Reduction in proteinuria in BALB/c mouse model of LPS-induced reversible proteinuric kidney disease at 300 ug/100 g body weight, ip measured 8 hrs post dose by ELISA. Format: functional, organism-based.
The species named for test [11] is Ovis aries. The test can be described thus: Ring stabilizer activity at full-length native sheep brain dynamin 1 assessed as stimulation of GTPase activity in absence of PS liposomes and in presence of tween-80.
Test [12] is filed under the species Ovis aries. The test can be described thus: Ring stabilizer activity at full-length native sheep brain dynamin 1 assessed as increase in basal dynamin GTP hydrolysis up to 40 mins in presence of Gsn-F-actin.
For test [13], the species on record is Ovis aries. Kind of test: Ring stabilizer activity at full-length native sheep brain dynamin 1 assessed as stimulation of GTPase activity at 5 uM in absence of PS liposomes using <100 nM full-length dynamin 1.
The species named for test [14] is Ovis aries. The test can be described thus: Inhibition of dis-assembly of pre-assembled full-length native sheep brain dynamin 1 pre-incubated in presence of PS liposomes followed compound addition at 5 uM and measured after 10 mins.
Test [15] has as its target T2, Dynamin-1 (Mus musculus). Kind of test: Ring stabilizer activity at dynamin in mouse podocytes assessed as increase in focal adhesions incubated for 10 mins by paxillin staining based assay. The format is cell-based.
Test [16] is filed under the species Mus musculus. The test can be described thus: Inhibition of endocytosis in mouse podocytes. The format is functional, cell-based.
Test [17] is filed under the species Ovis aries. Kind of test: Inhibition of full-length native sheep brain dynamin 1 assessed as reduction in PS liposomes-induced GTPase activity at 5 uM.
Test [18] relates to Mus musculus. The test can be described thus: Reduction in proteinuria in mouse model of proteinuria expressing ACTN4 gene gain of function mutation at 166 ug/100 g body weight, ip dosed at 0 hrs and measured every 2 hrs post dose up to 6 hrs by ELISA and creatinine companion assay. Format: functional, organism-based.

The structures appear in SMILES notation. Calls of active or inactive are those of the source. The calls are words filed in the database; no cut-off is given here.

For `N#C/C(=C\c1cc(O)c(O)c(O)c1)C(=O)NCCCNC(=O)/C(C#N)=C/c1cc(O)c(O)c(O)c1`, the result with Mus musculus [1], in the test listed under Ovis aries [2], at Dynamin-1 (Mus musculus) [4], in the test filed under Ovis aries [5], in the test filed under Ovis aries [6] and in the test filed under Ovis aries [9] was Active. Further, the result in the test listed under Ovis aries [11], in the test filed under Ovis aries [12], at Dynamin-1 (Mus musculus) [15] and in the test on Mus musculus [18] was Active. The outcome at Dynamin-1 (Homo sapiens), with Mus musculus [10] and in the test listed under Ovis aries [13] was inactive. Moreover, the IC50 in test [3] amounted to 0.5 µM. In addition, the Activity entry in the test listed under Ovis aries [7] is “Tde”. Further, in the test listed under Ovis aries [8], the inhibition result is “inactive”. Further, the inhibition entry in the test filed under Ovis aries [14], in the test filed under Mus musculus [16] and in the test filed under Ovis aries [17] was “Active” each time.

By IC50 is commonly meant the midpoint of a concentration-inhibition curve.

(Values after ChEMBL document CHEMBL4421721, “Use of dynamin ring stabilizers” (2012).)
